pKi: −log10 of the molar value.
Columns and labels:
[1] = target: T1, human norepinephrine transporter (Homo sapiens, UniProt P23975); experiment: hNET receptor binding ([125I]-RTI-55 radioligand binding); details: membranes of HEK-293 cells transfected with human norepinephrine transporter, IC50 converted to Ki by Cheng-Prusoff, read-out: hNET (Ki)
T1 construct: host or cells: HEK-293
How it was run: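 Membranes from HEK-293 cells transfected with human NET. Nonspecific binding defined with 10 μM desipramine, duplicates. IC50 by nonlinear regression, converted to Ki with Cheng-Prusoff.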

[2] = target: T2, human seritonin transporter (Homo sapiens, UniProt P31645); experiment: hSERT receptor binding ([125I]-RTI-55 radioligand binding); details: membranes of HEK-293 cells transfected with human seritonin transporter, IC50 converted to Ki by Cheng-Prusoff, read-out: SERT (Ki)
T2 construct: host or cells: HEK-293
T2 sequence (P31645 whole entry): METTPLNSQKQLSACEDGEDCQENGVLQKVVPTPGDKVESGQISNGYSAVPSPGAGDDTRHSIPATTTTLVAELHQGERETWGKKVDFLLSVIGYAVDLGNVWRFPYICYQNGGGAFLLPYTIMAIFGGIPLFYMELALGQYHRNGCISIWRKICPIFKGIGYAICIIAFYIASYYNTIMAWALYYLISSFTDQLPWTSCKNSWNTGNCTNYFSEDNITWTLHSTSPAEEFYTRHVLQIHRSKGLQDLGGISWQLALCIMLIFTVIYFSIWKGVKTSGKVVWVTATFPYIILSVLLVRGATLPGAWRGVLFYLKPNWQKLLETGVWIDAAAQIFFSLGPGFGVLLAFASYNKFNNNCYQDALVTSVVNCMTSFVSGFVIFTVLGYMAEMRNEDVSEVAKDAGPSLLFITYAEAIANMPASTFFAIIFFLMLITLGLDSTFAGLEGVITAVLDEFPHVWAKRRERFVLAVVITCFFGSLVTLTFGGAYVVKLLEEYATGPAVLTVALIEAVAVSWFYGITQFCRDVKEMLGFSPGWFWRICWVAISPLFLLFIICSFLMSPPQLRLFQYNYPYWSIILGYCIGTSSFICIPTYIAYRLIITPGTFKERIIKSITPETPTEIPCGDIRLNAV

T1 sequence (P23975 whole entry): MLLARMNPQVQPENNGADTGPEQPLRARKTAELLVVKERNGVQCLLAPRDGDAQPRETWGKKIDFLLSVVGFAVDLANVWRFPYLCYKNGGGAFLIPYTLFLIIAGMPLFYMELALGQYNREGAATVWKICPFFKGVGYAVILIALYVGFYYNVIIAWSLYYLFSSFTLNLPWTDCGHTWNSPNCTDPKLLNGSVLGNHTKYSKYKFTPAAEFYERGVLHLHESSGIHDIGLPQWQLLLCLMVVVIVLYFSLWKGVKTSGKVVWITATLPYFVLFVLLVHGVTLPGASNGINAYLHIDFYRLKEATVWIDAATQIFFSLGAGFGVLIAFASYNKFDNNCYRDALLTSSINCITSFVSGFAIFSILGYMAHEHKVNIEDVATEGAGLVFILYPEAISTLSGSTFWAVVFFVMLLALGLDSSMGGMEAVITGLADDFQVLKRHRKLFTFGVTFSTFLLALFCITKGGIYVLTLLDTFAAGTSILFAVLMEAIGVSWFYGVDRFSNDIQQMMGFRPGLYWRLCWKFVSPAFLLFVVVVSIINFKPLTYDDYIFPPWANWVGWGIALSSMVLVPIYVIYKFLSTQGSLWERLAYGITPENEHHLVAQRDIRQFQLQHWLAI

**Q.** How did the pKi [1] turn out when `Fc1ccc(Oc2ncccc2O[C@@H](c2ccccc2)[C@@H]2CNCCO2)cc1` [Example 116, (2S)-2-[(S)-{[2-(4-fluorophenoxy)pyridin-3-yl]oxy}(phenyl)methyl]morpholine] was run?
**A.** 7.20

**Q.** What about the pKi [2] of the same molecule?
**A.** 5.88

**Q.** With `CCOc1ccccc1OC(C1CC1)[C@@H]1CNCCO1` (stereo partly drawn) [Example 118, (2S)-2-[cyclopropyl(2-ethoxyphenoxy)methyl]morpholine] as the molecule, how does the pKi [1] read?
**A.** 5.94

**Q.** What about the pKi [2] of the same molecule?
**A.** ≤ 5.00

**Q.** With `Fc1ccc(O[C@@H](c2ccccc2)[C@@H]2CNCCO2)c(C2CC2)c1` [Example 119, (2S)-2-[(S)-(2-cyclopropyl-4-fluorophenoxy)(phenyl)methyl]morpholine] as the molecule, how does the pKi [1] read?
**A.** 7.64

**Q.** And the pKi [2]?
**A.** 7.18

**Q.** Which results are given for `Fc1cc(F)c(O[C@@H](c2ccccc2)[C@@H]2CNCCO2)c(C2CC2)c1` [Example 122, (2S)-2-[(S)-(2-cyclopropyl-4,6-difluorophenoxy)(phenyl)methyl]morpholine]?
**A.** pKi [1]: 7.96; pKi [2]: 7.36

**Q.** Which results are given for `CCc1ncccc1O[C@@H](c1ccccc1)[C@@H]1CNCCO1` [Example 124, (2S)-2-[(S)-[(2-ethylpyridin-3-yl)oxy](phenyl)methyl]morpholine]?
**A.** pKi [1]: 7.52; pKi [2]: 6.46

**Q.** How did the pKi [1] turn out when `N#Cc1ccccc1O[C@@H](c1ccccn1)[C@@H]1CNCCO1` [Example 125, 2-[(S)-(2S)-morpholin-2-yl(pyridin-2-yl)methoxy]benzonitrile] was run?
**A.** 7.96

**Q.** And the pKi [2]?
**A.** ≤ 5.00

**Q.** `CC(C)Oc1ccccc1O[C@@H](c1ccccn1)[C@@H]1CNCCO1` [Example 126, (2S)-2-[(S)-(2-isopropoxyphenoxy)(pyridin-2-yl)methyl]morpholine] was tested. Which pKi [1] did it give?
**A.** 7.49

**Q.** What about the pKi [2] of the same molecule?
**A.** ≤ 5.00

**Q.** Which results are given for `CCCc1ccccc1O[C@@H](c1ccccn1)[C@@H]1CNCCO1` [Example 127, (2S)-2-[(S)-(2-propylphenoxy)(pyridin-2-yl)methyl]morpholine]?
**A.** pKi [1]: 8.15; pKi [2]: 5.20

**Q.** With `c1ccc(Cc2ccccc2O[C@@H](c2ccccn2)[C@@H]2CNCCO2)cc1` [Example 128, (2S)-2-[(S)-(2-benzylphenoxy)(pyridin-2-yl)methyl]morpholine] as the molecule, how does the pKi [1] read?
**A.** 7.96

**Q.** What about the pKi [2] of the same molecule?
**A.** 5.48

**Q.** With `FC(F)(F)Oc1ccccc1O[C@@H](c1ccccn1)[C@@H]1CNCCO1` [Example 129, (2S)-2-{(S)-pyridin-2-yl[2-(trifluoromethoxy)phenoxy]methyl}morpholine] as the molecule, how does the pKi [1] read?
**A.** 8.10

**Q.** And the pKi [2]?
**A.** 5.35

**Q.** How did the pKi [1] turn out when `Cc1ccc(C(C)C)c(O[C@@H](c2ccccn2)[C@@H]2CNCCO2)c1` [Example 130, (2S)-2-[(S)-(2-isopropyl-5-methylphenoxy)(pyridin-2-yl)methyl]morpholine] was run?
**A.** 6.34

**Q.** And the pKi [2]?
**A.** 5.15

**Q.** What does the source list for `Cc1ncccc1O[C@@H](c1ccccc1)[C@@H]1CNCCO1` [Example 131, (2S)-2-[(S)-[(2-methylpyridin-3-yl)oxy](phenyl)methyl]morpholine]?
**A.** pKi [1]: 6.41; pKi [2]: 7.00

**Q.** With `c1ccc([C@H](Oc2ccccc2C2CCCC2)[C@@H]2CNCCO2)nc1` [Example 132, (2S)-2-[(S)-(2-cyclopentylphenoxy)(pyridin-2-yl)methyl]morpholine] as the molecule, how does the pKi [1] read?
**A.** 7.74

**Q.** What about the pKi [2] of the same molecule?
**A.** 5.21

**Q.** With `FC(F)(F)c1ccccc1O[C@@H](c1ccccn1)[C@@H]1CNCCO1` [Example 133, (2S)-2-{(S)-pyridin-2-yl[2-(trifluoromethyl)phenoxy]methyl}morpholine] as the molecule, how does the pKi [1] read?
**A.** 5.84

**Q.** What about the pKi [2] of the same molecule?
**A.** 5.04

**Q.** With `CCCc1ncccc1O[C@@H](c1ccccc1)[C@@H]1CNCCO1` [Example 135, (2S)-2-{(S)-phenyl[(2-propylpyridin-3-yl)oxy]methyl}morpholine] as the molecule, how does the pKi [1] read?
**A.** 7.49

**Q.** What about the pKi [2] of the same molecule?
**A.** 5.35

**Q.** `CCOc1ncccc1O[C@@H](c1ccccc1)[C@@H]1CNCCO1` [Example 137, (2S)-2-[(S)-[(2-ethoxypyridin-3-yl)oxy](phenyl)methyl]morpholine] was tested. Which pKi [1] did it give?
**A.** 8.05

**Q.** What about the pKi [2] of the same molecule?
**A.** 5.74

**Q.** What does the source list for `CCOc1ccccc1O[C@@H](c1ncccc1C)[C@@H]1CNCCO1` [Example 138, (2S)-2-[(S)-(2-ethoxyphenoxy)(3-methylpyridin-2-yl)methyl]morpholine]?
**A.** pKi [1]: 5.79; pKi [2]: 5.42

**Q.** What does the source list for `Cc1cccnc1[C@H](Oc1ccccc1OC(F)(F)F)[C@@H]1CNCCO1` [Example 139, (2S)-2-{(S)-(3-methylpyridin-2-yl)[2-(trifluoromethoxy)phenoxy]methyl}morpholine]?
**A.** pKi [1]: 5.92; pKi [2]: 5.94

**Q.** Which results are given for `COc1cccc([C@H](Oc2ccccc2OC(C)C)[C@@H]2CNCCO2)n1` [Example 140, (2S)-2-[(S)-(2-isopropoxyphenoxy)(6-methoxypyridin-2-yl)methyl]morpholine]?
**A.** pKi [1]: 7.15; pKi [2]: 6.12

**Q.** How did the pKi [1] turn out when `CCc1ccnc([C@H](Oc2c(F)cccc2OC)[C@@H]2CNCCO2)c1` [Example 141, (2S)-2-[(S)-(4-ethylpyridin-2-yl) (2-fluoro-6-methoxyphenoxy)methyl]morpholine] was run?
**A.** 7.40

**Q.** And the pKi [2]?
**A.** 5.56

**Q.** With `CCOc1ccccc1O[C@@H](c1cc(CC)ccn1)[C@@H]1CNCCO1` [Example 142, (2S)-2-[(S)-(2-ethoxyphenoxy)(4-ethylpyridin-2-yl)methyl]morpholine] as the molecule, how does the pKi [1] read?
**A.** 7.31

**Q.** What about the pKi [2] of the same molecule?
**A.** 5.34

**Q.** How did the pKi [1] turn out when `CCOc1ncccc1O[C@@H](C)[C@@H]1CNCCO1` [Example 144, (2S)-2-{(1S)-1-[(2-ethoxypyridin-3-yl)oxy]ethyl}morpholine] was run?
**A.** 6.52

**Q.** What about the pKi [2] of the same molecule?
**A.** 5.14

**Q.** How did the pKi [1] turn out when `FCCCc1ccccc1O[C@@H](c1ccccc1)[C@@H]1CNCCO1` [Example 145, (2S)-2-[(S)-[2-(3-fluoropropyl)phenoxy](phenyl)methyl]morpholine] was run?
**A.** 7.35

**Q.** What about the pKi [2] of the same molecule?
**A.** 5.38

**Q.** `Fc1cccc(F)c1O[C@H](C1=CCCC1)[C@@H]1CNCCO1` [Example 147, (2S)-2-[(R)-cyclopent-1-en-1-yl(2,6-difluorophenoxy)methyl]morpholine] was tested. Which pKi [1] did it give?
**A.** 5.59

**Q.** And the pKi [2]?
**A.** 5.60

**Q.** With `COc1cccc(OC)c1OC(c1ccccc1)[C@@H]1CNCCO1` (stereo partly drawn) [Example 148, (2S)-2-[(2,6-dimethoxyphenoxy)(phenyl)methyl]morpholine] as the molecule, how does the pKi [1] read?
**A.** 7.16

**Q.** What about the pKi [2] of the same molecule?
**A.** ≤ 5.00

**Q.** `CCOc1ncccc1OC(CC(C)C)[C@@H]1CNCCO1` (stereo partly drawn) [Example 149, (2S)-2-{1-[(2-ethoxypyridin-3-yl)oxy]-3-methylbutyl}morpholine] was tested. Which pKi [1] did it give?
**A.** 8.05

**Q.** What about the pKi [2] of the same molecule?
**A.** 5.64

**Q.** With `c1ccc([C@H](Oc2cccnc2C2CC2)[C@@H]2CNCCO2)cc1` [Example 150, (2S)-2-[(S)-[(2-cyclopropylpyridin-3-yl)oxy](phenyl)methyl]morpholine] as the molecule, how does the pKi [1] read?
**A.** 7.70

**Q.** What about the pKi [2] of the same molecule?
**A.** 5.69

**Q.** With `CC(Oc1ccccc1Oc1ccc(F)cc1)[C@@H]1CNCCO1` (stereo partly drawn) [Example 151, (2S)-2-{1-[2-(4-fluorophenoxy)phenoxy]ethyl}morpholine] as the molecule, how does the pKi [1] read?
**A.** 8.40

**Q.** What about the pKi [2] of the same molecule?
**A.** 5.48

**Q.** How did the pKi [1] turn out when `Fc1ccc(Cl)c(O[C@@H](c2ccccn2)[C@@H]2CNCCO2)c1` [Example 152, (2S)-2-[(S)-(2-chloro-5-fluorophenoxy)(pyridin-2-yl)methyl]morpholine] was run?
**A.** 8.05

**Q.** What about the pKi [2] of the same molecule?
**A.** 5.71

**Q.** What does the source list for `c1ccc(-c2ccccc2O[C@@H](c2ccccn2)[C@@H]2CNCCO2)cc1` [Example 153, (2S)-2-[(S)-(biphenyl-2-yloxy)(pyridin-2-yl)methyl]morpholine]?
**A.** pKi [1]: 7.85; pKi [2]: 5.20

**Q.** How did the pKi [1] turn out when `c1ccc([C@H](Oc2ccccc2C2CC2)[C@@H]2CNCCO2)nc1` [Example 154, (2S)-2-[(S)-(2-cyclopropylphenoxy)(pyridin-2-yl)methyl]morpholine] was run?
**A.** 7.92

**Q.** What about the pKi [2] of the same molecule?
**A.** 5.60

**Q.** How did the pKi [1] turn out when `Brc1ccccc1O[C@@H](c1ccccn1)[C@@H]1CNCCO1` [Example 155, (2S)-2-[(S)-(2-bromophenoxy)(pyridin-2-yl)methyl]morpholine] was run?
**A.** 8.30

**Q.** What about the pKi [2] of the same molecule?
**A.** 6.11

**Q.** With `FCc1ccccc1OC(c1ccccc1)[C@@H]1CNCCO1` (stereo partly drawn) [Example 156, (2S)-2-[[2-(fluoromethyl)phenoxy](phenyl)methyl]morpholine] as the molecule, how does the pKi [1] read?
**A.** 7.85

**Q.** What about the pKi [2] of the same molecule?
**A.** 6.10

**Q.** `CCOc1cccc(F)c1OC(c1ccccc1)[C@@H]1CNCCO1` (stereo partly drawn) [Example 157, (2S)-2-[(2-ethoxy-6-fluorophenoxy)(phenyl)methyl]morpholine] was tested. Which pKi [1] did it give?
**A.** 8.40

**Q.** What about the pKi [2] of the same molecule?
**A.** 5.59

**Q.** With `COc1cccc(F)c1O[C@@H](c1ccccn1)[C@@H]1CNCCO1` [Example 158, (2S)-2-[(S)-(2-fluoro-6-methoxyphenoxy)(pyridin-2-yl)methyl]morpholine] as the molecule, how does the pKi [1] read?
**A.** 8.22

**Q.** What about the pKi [2] of the same molecule?
**A.** ≤ 5.00

**Q.** `CCOc1cccc(F)c1O[C@@H](c1ccccn1)[C@@H]1CNCCO1` [Example 159, (2S)-2-[(S)-(2-ethoxy-6-fluorophenoxy)(pyridin-2-yl)methyl]morpholine] was tested. Which pKi [1] did it give?
**A.** 8.15

**Q.** What about the pKi [2] of the same molecule?
**A.** 5.13

**Q.** With `Fc1cccc(F)c1O[C@@H](c1ccccn1)[C@@H]1CNCCO1` [Example 160, (2S)-2-[(S)-(2,6-difluorophenoxy)(pyridin-2-yl)methyl]morpholine] as the molecule, how does the pKi [1] read?
**A.** 8.22

**Q.** What about the pKi [2] of the same molecule?
**A.** 5.19

**Q.** What does the source list for `FCCCOc1ccccc1O[C@@H](c1ccccc1)[C@@H]1CNCCO1` [Example 161, (2S)-2-[(S)-[2-(3-fluoropropoxy)phenoxy](phenyl)methyl]morpholine]?
**A.** pKi [1]: 8.30; pKi [2]: 5.41

**Q.** What does the source list for `CCOc1ncccc1O[C@@H](CC1CCCCC1)[C@@H]1CNCCO1` [Example 162, (2S)-2-{(1S)-2-cyclohexyl-1-[(2-ethoxypyridin-3-yl)oxy]ethyl}morpholine]?
**A.** pKi [1]: 8.30; pKi [2]: 6.58

**Q.** `Fc1cccc(F)c1OC(c1cccc2c1OCC2)[C@@H]1CNCCO1` (stereo partly drawn) [Example 163, (2S)-2-[(2,6-difluorophenoxy)(2,3-dihydro-1-benzofuran-7-yl)methyl]morpholine] was tested. Which pKi [1] did it give?
**A.** 7.89

**Q.** And the pKi [2]?
**A.** 6.35

**Q.** What does the source list for `Fc1ccc(C2CC2)c(O[C@@H](c2ccccn2)[C@@H]2CNCCO2)c1` [Example 164, (2S)-2-[(S)-(2-cyclopropyl-5-fluorophenoxy)(pyridin-2-yl)methyl]morpholine]?
**A.** pKi [1]: 7.89; pKi [2]: 5.51

**Q.** With `CC(C)Oc1cccc(F)c1O[C@@H](c1ccccc1)[C@@H]1CNCCO1` [Example 165, (2S)-2-[(S)-(2-fluoro-6-isopropoxyphenoxy)(phenyl)methyl]morpholine] as the molecule, how does the pKi [1] read?
**A.** 8.40

**Q.** What about the pKi [2] of the same molecule?
**A.** 6.45
